{"source": "ChEMBL document CHEMBL5647694", "about": "“Novel orally bioavailable EZH1/2 dual inhibitors with greater antitumor efficacy than an EZH2 selective inhibitor” (Cancer Sci, 2017)", "key": {"[1]": {"biological_target": "Ephrin type-B receptor 4 (Homo sapiens) (UniProt P54760)", "assay": "Inhibition of N-terminal GST-fused human EPHB4 cytoplasmic domain (577 to 987 residues) expressed in baculovirus-infected Sf21 cells using Blk/Lyntide as substrate at 1 uM in presence of ATP by Mobility shift assay"}, "[2]": {"biological_target": "Tyrosine-protein kinase ABL2 (Homo sapiens) (UniProt P42684)", "assay": "Inhibition of N-terminal GST-fused truncated human ARG (2 to 52, 74 to 1182 residues) expressed in baculovirus-infected Sf21 cells using ABLtide as substrate at 1 uM in presence of ATP by Mobility shift assay"}, "[3]": {"biological_target": "Focal adhesion kinase 1 (Homo sapiens) (UniProt Q05397)", "assay": "Inhibition of N-terminal GST-fused truncated human FAK (376 to 1052 residues) expressed in baculovirus-infected Sf21 cells using Blk/Lyntide as substrate at 1 uM in presence of ATP by Mobility shift assay"}, "[4]": {"biological_target": "Homeodomain-interacting protein kinase 4 (Homo sapiens) (UniProt Q8NE63)", "assay": "Inhibition of N-terminal GST-fused full length human HIPK4 (1 to 616 residues) expressed in baculovirus expression system using DYRKtide-F as substrate at 1 uM in presence of ATP by Mobility shift assay"}, "[5]": {"biological_target": "Mitogen-activated protein kinase 7 (Homo sapiens) (UniProt Q13164)", "sequence (Q13164 2-816 limits assumed)": "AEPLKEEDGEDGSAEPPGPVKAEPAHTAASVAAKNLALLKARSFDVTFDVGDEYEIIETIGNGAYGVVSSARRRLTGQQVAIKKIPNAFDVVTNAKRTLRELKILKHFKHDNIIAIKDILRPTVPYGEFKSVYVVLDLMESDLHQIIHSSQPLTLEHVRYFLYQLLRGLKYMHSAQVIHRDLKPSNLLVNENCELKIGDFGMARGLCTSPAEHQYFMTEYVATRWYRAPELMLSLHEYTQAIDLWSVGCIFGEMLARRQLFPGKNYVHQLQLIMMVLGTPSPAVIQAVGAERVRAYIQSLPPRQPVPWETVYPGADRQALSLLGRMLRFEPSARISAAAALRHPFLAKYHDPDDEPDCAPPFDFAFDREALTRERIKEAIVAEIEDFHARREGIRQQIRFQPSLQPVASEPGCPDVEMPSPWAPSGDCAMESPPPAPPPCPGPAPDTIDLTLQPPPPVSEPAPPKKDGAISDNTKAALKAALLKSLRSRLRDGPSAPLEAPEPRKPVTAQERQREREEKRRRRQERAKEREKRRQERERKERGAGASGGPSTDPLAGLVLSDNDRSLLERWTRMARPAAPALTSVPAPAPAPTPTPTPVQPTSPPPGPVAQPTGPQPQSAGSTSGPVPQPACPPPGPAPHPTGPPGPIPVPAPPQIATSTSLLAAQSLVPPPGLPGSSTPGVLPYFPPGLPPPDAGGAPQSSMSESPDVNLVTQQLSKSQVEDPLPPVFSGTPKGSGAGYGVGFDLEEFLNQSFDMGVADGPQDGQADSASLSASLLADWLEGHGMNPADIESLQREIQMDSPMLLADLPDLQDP", "assay": "Inhibition of N-terminal GST-fused human ERK5 catalytic domain (1 to 398 residues) expressed in Escherichia coli expression system using EGFR-derived peptide as substrate at 1 uM in presence of ATP by Mobility shift assay"}, "[6]": {"biological_target": "Tyrosine-protein kinase receptor UFO (Homo sapiens) (UniProt P30530)", "assay": "Inhibition of N-terminal GST-fused human AXL cytoplasmic domain (464 to 885 residues) expressed in baculovirus-infected Sf21 cells using CSKtide as substrate at 1 uM in presence of ATP by Mobility shift assay"}, "[7]": {"biological_target": "Death-associated protein kinase 1 (Homo sapiens) (UniProt P53355)", "sequence (P53355 whole entry, looked up, the tested form may be a part)": "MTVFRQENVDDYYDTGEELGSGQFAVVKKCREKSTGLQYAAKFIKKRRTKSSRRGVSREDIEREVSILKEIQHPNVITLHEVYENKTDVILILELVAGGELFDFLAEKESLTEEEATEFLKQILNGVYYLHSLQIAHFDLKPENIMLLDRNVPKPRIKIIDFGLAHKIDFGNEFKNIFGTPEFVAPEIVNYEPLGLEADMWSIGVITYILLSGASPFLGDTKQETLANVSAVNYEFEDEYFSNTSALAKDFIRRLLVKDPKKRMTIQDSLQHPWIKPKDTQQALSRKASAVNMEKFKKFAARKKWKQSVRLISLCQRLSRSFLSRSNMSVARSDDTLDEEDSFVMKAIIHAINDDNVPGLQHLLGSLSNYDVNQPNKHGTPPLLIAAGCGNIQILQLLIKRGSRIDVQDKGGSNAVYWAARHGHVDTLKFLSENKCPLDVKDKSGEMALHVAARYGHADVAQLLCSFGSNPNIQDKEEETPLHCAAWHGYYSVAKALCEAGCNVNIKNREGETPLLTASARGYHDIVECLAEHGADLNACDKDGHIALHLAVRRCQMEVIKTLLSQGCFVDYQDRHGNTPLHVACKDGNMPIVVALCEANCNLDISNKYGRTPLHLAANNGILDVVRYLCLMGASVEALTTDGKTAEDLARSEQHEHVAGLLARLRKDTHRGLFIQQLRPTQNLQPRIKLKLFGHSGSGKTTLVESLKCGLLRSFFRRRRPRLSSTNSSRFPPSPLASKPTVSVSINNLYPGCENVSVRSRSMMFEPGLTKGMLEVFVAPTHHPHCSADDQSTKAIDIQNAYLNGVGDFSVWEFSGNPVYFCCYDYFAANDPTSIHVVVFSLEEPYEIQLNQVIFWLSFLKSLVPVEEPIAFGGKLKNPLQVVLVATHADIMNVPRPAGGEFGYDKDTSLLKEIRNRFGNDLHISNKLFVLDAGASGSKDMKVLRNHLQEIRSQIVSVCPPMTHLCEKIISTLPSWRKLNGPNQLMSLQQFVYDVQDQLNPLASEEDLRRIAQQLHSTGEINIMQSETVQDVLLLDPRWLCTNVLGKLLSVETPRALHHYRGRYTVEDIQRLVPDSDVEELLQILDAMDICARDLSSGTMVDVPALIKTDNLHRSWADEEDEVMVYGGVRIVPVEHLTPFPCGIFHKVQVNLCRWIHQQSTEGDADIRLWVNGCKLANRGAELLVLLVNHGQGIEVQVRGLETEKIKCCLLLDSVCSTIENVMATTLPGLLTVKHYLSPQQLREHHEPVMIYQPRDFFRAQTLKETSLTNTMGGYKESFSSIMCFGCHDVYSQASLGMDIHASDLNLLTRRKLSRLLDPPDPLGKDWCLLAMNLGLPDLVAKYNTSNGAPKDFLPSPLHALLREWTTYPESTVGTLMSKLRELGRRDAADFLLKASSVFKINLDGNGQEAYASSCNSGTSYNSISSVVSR", "assay": "Inhibition of N-terminal GST-fused human DAPK1 catalytic domain (1 to 289 residues) expressed in baculovirus expression system using DAPK1tide as substrate at 1 uM in presence of ATP by Mobility shift assay"}, "[8]": {"biological_target": "Serine/threonine-protein kinase PAK 5 (Homo sapiens) (UniProt Q9P286)", "assay": "Inhibition of N-terminal GST-fused human PAK5 catalytic domain (425 to 719 residues) expressed in baculovirus expression system using DAPK1tide as substrate at 1 uM in presence of ATP by Mobility shift assay"}, "[9]": {"biological_target": "Serine/threonine-protein kinase MRCK beta (Homo sapiens) (UniProt Q9Y5S2)", "sequence (Q9Y5S2 whole entry, the tested form may be a part)": "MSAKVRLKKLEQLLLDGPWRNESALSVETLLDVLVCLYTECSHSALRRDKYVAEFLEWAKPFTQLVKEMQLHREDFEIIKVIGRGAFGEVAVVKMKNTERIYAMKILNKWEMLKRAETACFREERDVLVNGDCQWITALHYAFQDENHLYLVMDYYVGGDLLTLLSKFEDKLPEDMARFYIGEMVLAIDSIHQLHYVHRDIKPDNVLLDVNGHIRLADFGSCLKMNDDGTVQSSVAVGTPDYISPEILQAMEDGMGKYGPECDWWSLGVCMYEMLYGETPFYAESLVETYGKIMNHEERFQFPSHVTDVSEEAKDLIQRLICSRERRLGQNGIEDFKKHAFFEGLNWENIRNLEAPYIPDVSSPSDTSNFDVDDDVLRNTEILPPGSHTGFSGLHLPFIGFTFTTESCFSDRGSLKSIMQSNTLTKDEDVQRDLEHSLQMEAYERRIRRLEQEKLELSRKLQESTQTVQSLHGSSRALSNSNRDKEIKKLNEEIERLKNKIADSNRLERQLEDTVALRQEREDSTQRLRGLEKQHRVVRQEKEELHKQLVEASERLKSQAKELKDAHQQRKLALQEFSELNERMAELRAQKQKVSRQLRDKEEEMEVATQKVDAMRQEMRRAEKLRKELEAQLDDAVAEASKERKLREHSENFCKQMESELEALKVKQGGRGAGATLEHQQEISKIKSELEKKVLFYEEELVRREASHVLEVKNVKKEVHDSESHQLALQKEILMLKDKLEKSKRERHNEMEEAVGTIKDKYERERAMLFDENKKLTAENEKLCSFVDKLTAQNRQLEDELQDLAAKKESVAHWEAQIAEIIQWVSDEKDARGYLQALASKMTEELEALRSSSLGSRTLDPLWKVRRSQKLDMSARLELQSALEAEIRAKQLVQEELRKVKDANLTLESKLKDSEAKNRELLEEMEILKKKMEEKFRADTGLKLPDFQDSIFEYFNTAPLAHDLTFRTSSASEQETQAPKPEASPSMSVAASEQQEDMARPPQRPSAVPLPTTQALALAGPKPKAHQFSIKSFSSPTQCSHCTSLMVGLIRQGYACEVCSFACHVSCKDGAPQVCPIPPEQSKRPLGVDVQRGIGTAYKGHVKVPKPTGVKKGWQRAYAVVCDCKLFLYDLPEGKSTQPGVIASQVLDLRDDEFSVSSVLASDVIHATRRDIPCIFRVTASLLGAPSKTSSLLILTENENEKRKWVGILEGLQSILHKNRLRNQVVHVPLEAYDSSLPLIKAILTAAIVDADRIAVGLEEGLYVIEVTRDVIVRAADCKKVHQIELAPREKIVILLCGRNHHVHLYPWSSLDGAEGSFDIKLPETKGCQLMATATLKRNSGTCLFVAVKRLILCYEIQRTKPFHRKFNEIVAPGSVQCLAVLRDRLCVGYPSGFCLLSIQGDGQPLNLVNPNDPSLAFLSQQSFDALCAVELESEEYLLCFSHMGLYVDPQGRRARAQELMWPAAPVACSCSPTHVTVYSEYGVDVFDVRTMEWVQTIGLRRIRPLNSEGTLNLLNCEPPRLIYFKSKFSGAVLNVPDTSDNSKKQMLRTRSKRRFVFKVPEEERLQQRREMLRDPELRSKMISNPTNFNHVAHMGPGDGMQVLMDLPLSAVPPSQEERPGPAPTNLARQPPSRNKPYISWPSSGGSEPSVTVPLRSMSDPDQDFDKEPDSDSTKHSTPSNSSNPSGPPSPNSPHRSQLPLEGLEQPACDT", "assay": "Inhibition of N-terminal GST-fused truncated human MRCKbeta (1 to 473 residues) expressed in baculovirus expression system using DAPK1tide as substrate at 1 uM in presence of ATP by Mobility shift assay"}, "[10]": {"biological_target": "Vascular endothelial growth factor receptor 2 (Homo sapiens) (UniProt P35968)", "assay": "Inhibition of N-terminal GST-tagged human KDR cytoplasmic domain (790 to 1356 residues) expressed in baculovirus-infected Sf21 cells using CSKtide as substrate at 1 uM in presence of ATP by Mobility shift assay"}, "[11]": {"biological_target": "Protein kinase C gamma type (Homo sapiens) (UniProt P05129)", "assay": "Inhibition of N-terminal GST-fused human full length PKC-gamma(1 to 697 residues ) expressed in baculovirus expression system using PKC peptide as substrate at 1 uM in presence of ATP by Mobility shift assay"}, "[12]": {"biological_target": "CDK9/cyclin T1 (Homo sapiens) (UniProt O60563+P50750)", "assay": "Inhibition of N-terminal GST-fused full length human CDK9 (1 to 372 residues)/human His-CyclinT1 (1 to 726 residues) expressed in baculovirus expression system using CDK9 substrate at 1 uM in presence of ATP by Mobility shift assay"}, "[13]": {"biological_target": "NUAK family SNF1-like kinase 2 (Homo sapiens) (UniProt Q9H093)", "sequence (Q9H093 whole entry, the tested form may be a part)": "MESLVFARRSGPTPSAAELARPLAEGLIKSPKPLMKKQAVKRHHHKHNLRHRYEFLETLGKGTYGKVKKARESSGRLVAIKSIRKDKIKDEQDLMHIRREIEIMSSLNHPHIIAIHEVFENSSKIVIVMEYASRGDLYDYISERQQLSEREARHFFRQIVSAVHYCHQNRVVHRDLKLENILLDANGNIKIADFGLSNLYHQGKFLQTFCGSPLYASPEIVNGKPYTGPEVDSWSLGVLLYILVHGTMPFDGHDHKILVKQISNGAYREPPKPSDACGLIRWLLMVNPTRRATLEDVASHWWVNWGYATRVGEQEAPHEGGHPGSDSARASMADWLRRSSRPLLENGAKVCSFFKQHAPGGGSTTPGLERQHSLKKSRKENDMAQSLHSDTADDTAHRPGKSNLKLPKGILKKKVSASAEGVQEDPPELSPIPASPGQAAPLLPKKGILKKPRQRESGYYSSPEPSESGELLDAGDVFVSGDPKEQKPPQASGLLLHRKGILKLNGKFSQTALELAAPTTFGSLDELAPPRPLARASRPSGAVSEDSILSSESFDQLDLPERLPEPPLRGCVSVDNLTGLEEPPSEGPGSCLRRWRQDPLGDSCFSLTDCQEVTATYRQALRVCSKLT", "assay": "Inhibition of N-terminal GST-fused full length human Nuak2 (1 to 628 residues) expressed in baculovirus expression system using CHKtide as substrate at 1 uM in presence of ATP by Mobility shift assay"}, "[14]": {"biological_target": "Casein kinase I isoform gamma-3 (Homo sapiens) (UniProt Q9Y6M4)", "sequence (Q9Y6M4 whole entry, looked up, the tested form may be a part, canonical isoform)": "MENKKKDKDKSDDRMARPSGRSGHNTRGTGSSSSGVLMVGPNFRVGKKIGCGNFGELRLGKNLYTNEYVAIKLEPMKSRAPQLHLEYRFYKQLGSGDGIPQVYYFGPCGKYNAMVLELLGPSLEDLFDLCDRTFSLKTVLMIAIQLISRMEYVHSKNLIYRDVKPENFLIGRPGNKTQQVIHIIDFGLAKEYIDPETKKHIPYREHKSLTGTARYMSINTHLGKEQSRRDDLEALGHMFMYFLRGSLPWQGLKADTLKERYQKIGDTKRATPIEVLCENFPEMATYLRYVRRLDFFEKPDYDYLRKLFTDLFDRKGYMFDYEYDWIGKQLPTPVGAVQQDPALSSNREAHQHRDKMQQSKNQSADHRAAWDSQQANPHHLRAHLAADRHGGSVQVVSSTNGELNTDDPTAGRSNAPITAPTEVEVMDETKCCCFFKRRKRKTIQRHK", "assay": "Inhibition of N-terminal GST-fused full length human CK1gamma3 (1 to 447 residues) expressed in baculovirus expression system using CKtide as substrate at 1 uM in presence of ATP by Mobility shift assay"}, "[15]": {"biological_target": "Serine/threonine-protein kinase Nek2 (Homo sapiens) (UniProt P51955)", "assay": "Inhibition of N-terminal His-tagged full length human NEK2 (1 to 445 residues) expressed in baculovirus expression system using CDK7 peptide as substrate at 1 uM in presence of ATP by Mobility shift assay"}, "[16]": {"biological_target": "Ephrin type-A receptor 1 (Homo sapiens) (UniProt P21709)", "assay": "Inhibition of N-terminal GST-fused human EPHA1 cytoplasmic domain (586 to 976 residues) expressed in baculovirus-infected Sf21 cells using Blk/Lyntide as substrate at 1 uM in presence of ATP by Mobility shift assay"}, "[17]": {"biological_target": "NUAK family SNF1-like kinase 1 (Homo sapiens) (UniProt O60285)", "assay": "Inhibition of N-terminal GST-fused full length human Nuak1 (1 to 661 residues) expressed in baculovirus expression system using CHKtide as substrate at 1 uM in presence of ATP by Mobility shift assay"}, "[18]": {"biological_target": "AMPK alpha2/beta1/gamma1 (Homo sapiens) (UniProt P54646+P54619+Q9Y478)", "assay": "Inhibition of N-terminal GST-tagged full-length human AMPK alpha2 (1 to 552 residues)/N-terminal GST-tagged human AMPK beta1 (1 to 270 residues)/N-terminal GST-tagged human AMPK gamma1 (1 to 331 residues) expressed in baculovirus-infected Sf21 cells using SAMS peptide as substrate at 1 uM in presence of ATP by Mobility shift assay"}, "[19]": {"biological_target": "Casein kinase I isoform alpha (Homo sapiens) (UniProt P48729)", "assay": "Inhibition of N-terminal GST-fused full length human CK1alpha (1 to 337 residues) expressed in baculovirus expression system using CKtide as substrate at 1 uM in presence of ATP by Mobility shift assay"}, "[20]": {"biological_target": "Dual specificity tyrosine-phosphorylation-regulated kinase 1B (Homo sapiens) (UniProt Q9Y463)", "assay": "Inhibition of N-terminal GST-fused full length human DYRK1B (1 to 629 residues) expressed in baculovirus expression system using DYRKtide-F as substrate at 1 uM in presence of ATP by Mobility shift assay"}, "[21]": {"biological_target": "Tyrosine-protein kinase JAK3 (Homo sapiens) (UniProt P52333)", "assay": "Inhibition of N-terminal His-tagged human JAK3 catalytic domain (795 to 1124 residues) expressed in baculovirus-infected Sf21 cells using Srctide as substrate at 1 uM in presence of ATP by Mobility shift assay"}, "[22]": {"biological_target": "Serine/threonine-protein kinase PAK 4 (Homo sapiens) (UniProt O96013)", "assay": "Inhibition of N-terminal GST-fused full length human PAK4 (1 to 591 residues) expressed in baculovirus expression system using SGKtide as substrate at 1 uM in presence of ATP by Mobility shift assay"}}}
{"smiles": "Cc1cc(C)c(CNC(=O)c2cc(Br)c3c(c2C)O[C@@](C)([C@H]2CC[C@H](N(C)C)CC2)O3)c(=O)[nH]1", "values": [{"measurement": "inhibition", "setting": "[1]", "value": -6.1, "unit": "%"}, {"measurement": "inhibition", "setting": "[2]", "value": -7.4, "unit": "%"}, {"measurement": "inhibition", "setting": "[3]", "value": -1.5, "unit": "%"}, {"measurement": "inhibition", "setting": "[4]", "value": 3, "unit": "%"}, {"measurement": "inhibition", "setting": "[5]", "value": -2.5, "unit": "%"}, {"measurement": "inhibition", "setting": "[6]", "value": -0.5, "unit": "%"}, {"measurement": "inhibition", "setting": "[7]", "value": 3.4, "unit": "%"}, {"measurement": "inhibition", "setting": "[8]", "value": -4.3, "unit": "%"}, {"measurement": "inhibition", "setting": "[9]", "value": -1, "unit": "%"}, {"measurement": "inhibition", "setting": "[10]", "value": -1.1, "unit": "%"}, {"measurement": "inhibition", "setting": "[11]", "value": 0, "unit": "%"}, {"measurement": "inhibition", "setting": "[12]", "value": -5.3, "unit": "%"}, {"measurement": "inhibition", "setting": "[13]", "value": -4, "unit": "%"}, {"measurement": "inhibition", "setting": "[14]", "value": 1.1, "unit": "%"}, {"measurement": "inhibition", "setting": "[15]", "value": 1.5, "unit": "%"}, {"measurement": "inhibition", "setting": "[16]", "value": -2.8, "unit": "%"}, {"measurement": "inhibition", "setting": "[17]", "value": -1.7, "unit": "%"}, {"measurement": "inhibition", "setting": "[18]", "value": -1.2, "unit": "%"}, {"measurement": "inhibition", "setting": "[19]", "value": 5.2, "unit": "%"}, {"measurement": "inhibition", "setting": "[20]", "value": 2.7, "unit": "%"}, {"measurement": "inhibition", "setting": "[21]", "value": -1.7, "unit": "%"}, {"measurement": "inhibition", "setting": "[22]", "value": -1.8, "unit": "%"}]}
{"smiles": "Cc1cc(C)c(CNC(=O)c2cc(Cl)c3c(c2C)O[C@@](C)([C@H]2CC[C@H](N(C)C)CC2)O3)c(=O)[nH]1", "note": "[VALEMETOSTAT]", "values": [{"measurement": "inhibition", "setting": "[1]", "value": -4.7, "unit": "%"}, {"measurement": "inhibition", "setting": "[2]", "value": -8.7, "unit": "%"}, {"measurement": "inhibition", "setting": "[3]", "value": -2.3, "unit": "%"}, {"measurement": "inhibition", "setting": "[4]", "value": -3, "unit": "%"}, {"measurement": "inhibition", "setting": "[5]", "value": -2.3, "unit": "%"}, {"measurement": "inhibition", "setting": "[6]", "value": -3.5, "unit": "%"}, {"measurement": "inhibition", "setting": "[7]", "value": 14.9, "unit": "%"}, {"measurement": "inhibition", "setting": "[8]", "value": -3.9, "unit": "%"}, {"measurement": "inhibition", "setting": "[9]", "value": -1.3, "unit": "%"}, {"measurement": "inhibition", "setting": "[10]", "value": -3, "unit": "%"}, {"measurement": "inhibition", "setting": "[11]", "value": 1, "unit": "%"}, {"measurement": "inhibition", "setting": "[12]", "value": 4.3, "unit": "%"}, {"measurement": "inhibition", "setting": "[13]", "value": 2.1, "unit": "%"}, {"measurement": "inhibition", "setting": "[14]", "value": 0.5, "unit": "%"}, {"measurement": "inhibition", "setting": "[15]", "value": 1.4, "unit": "%"}, {"measurement": "inhibition", "setting": "[16]", "value": -1.6, "unit": "%"}, {"measurement": "inhibition", "setting": "[17]", "value": 3, "unit": "%"}, {"measurement": "inhibition", "setting": "[18]", "value": -0.7, "unit": "%"}, {"measurement": "inhibition", "setting": "[19]", "value": 5.2, "unit": "%"}, {"measurement": "inhibition", "setting": "[20]", "value": -9.8, "unit": "%"}, {"measurement": "inhibition", "setting": "[21]", "value": -4, "unit": "%"}, {"measurement": "inhibition", "setting": "[22]", "value": 0.1, "unit": "%"}]}
